In patent publication US8012499B2, “Anthranilamides for controlling invertebrate pests” (E.I. du Pont de Nemours and Company, priority 2005, dated 2011) one finds melting point data, which are given here for three molecules.

Structures are written as SMILES.

One may read the melting point as the temperature of the solid-liquid transition.

Take `C/N=C(/C(=O)NC)c1cc(Cl)cc(C)c1NC(=O)c1cc(Br)nn1-c1ncccc1Cl` [Example 6, 3-bromo-N-[4-chloro-2-methyl-6-[(1E)-2-(methylamino)-1-(methylimino)-2-oxoethyl]phenyl]-1-(3-chloro-2-pyridinyl)-1H-pyrazole-5-carboxamide]: the melting point was 234 °C (dec.). `CCN(CC)C(=O)C(=O)c1cc(C)cc(C)c1NC(=O)c1cc(C(F)(F)F)nn1-c1ncccc1Cl` [Example 2, 1-(3-chloro-2-pyridinyl)-N-[2-[(diethylamino)oxoacetyl]-4,6-dimethylphenyl]-3-(trifluoromethyl)-1H-pyrazole-5-carboxamide] gave a melting point of 223 to 227 °C.

`CNC(=O)C(=O)c1cc(Cl)cc(C)c1NC(=O)c1cc(Br)nn1-c1ncccc1Cl` [Example 7, 3-bromo-N-[4-chloro-2-methyl-6-[(methylamino)oxoacetyl]phenyl]-1-(3-chloro-2-pyridinyl)-1H-pyrazole-5-carboxamide] gave a melting point of 247 °C.
